Measurements from publication PMC3119665, “A New Drug Design Targeting the Adenosinergic System for Huntington's Disease” (PLoS ONE, 2011).

What was measured:
[1] = tested on: Muscarinic, Oxotremorine-M; experiment: Radioligand binding panel (Table S1); design: species or system rat; conditions: 10 μM T1-11, n 2
GABAA, Agonist Site = experiment: Radioligand binding panel (Table S1); design: species or system rat; conditions: 10 μM T1-11, n 2
Sigma, Non-Selective = experiment: Radioligand binding panel (Table S1); design: species or system guinea pig; conditions: 10 μM T1-11, n 2
Muscarinic M5 = biological target: T1, Muscarinic M5 (Homo sapiens, UniProt P08912); experiment: Radioligand binding panel (Table S1); conditions: 10 μM T1-11, n 2
T1 construct: purchased MDS Pharma Services Taiwan

Histamine H1 = biological target: T2, Histamine H1 (Homo sapiens, UniProt P35367); experiment: Radioligand binding panel (Table S1); conditions: 10 μM T1-11, n 2
T2 construct: purchased MDS Pharma Services Taiwan

[2] = tested on: chymotrypsin-like activity of the proteasome; experiment: Proteasome activity assay, striatal synaptosomes; format: in vivo; conditions: R6/2 mice, 12 weeks old, 0.05 mg/ml in drinking water
Procedure: The chymotrypsin-like activity of the proteasome was determined using a specific proteasome substrate [succinyl (suc)-Leu-Leu-Val-Tyr-7-amino-4-methyl coumarin (AMC)] (Sigma-Aldrich, St Louis, MO, USA) as described earlier. In brief, the synaptosome-enriched fraction (10 µg) were incubated with the substrate (40 µM) in 100 µl of proteasome assay buffer [0.05 M Tris-HCl (pH 8.0), 0.5 mM EDTA, 1 mM ATP, and 1 mM DTT] at 37°C for 60 min where the relationship between the incubation time and product formation remained linear. The fluorescence of the released AMC was detected using a Fluorescence Microplate Reader System (Device, Sunnyvale, CA, USA) at 380-nm excitation and 460-nm emission wavelengths.

Cyclooxygenase COX-2 = biological target: T3, Cyclooxygenase COX-2 (Homo sapiens, UniProt P35354); experiment: Radioligand binding panel (Table S1); conditions: 10 μM T1-11, n 2
T3 construct: purchased MDS Pharma Services Taiwan

[3] = tested on: Calcium Channel L-Type, Dihydropyridine; experiment: Radioligand binding panel (Table S1); design: species or system rat; conditions: 10 μM T1-11, n 2
Bombesin BB3 = biological target: T4, Bombesin BB3 (Homo sapiens, UniProt P32247); experiment: Radioligand binding panel (Table S1); conditions: 10 μM T1-11, n 2
T4 construct: purchased MDS Pharma Services Taiwan

[4] = biological target: T5, Serotonin (5-Hydroxytryptamine) 5-HT4 (Cavia porcellus, UniProt O70528); experiment: Radioligand binding panel (Table S1); design: species or system guinea pig; conditions: 10 μM T1-11, n 2
T5 construct: purchased MDS Pharma Services Taiwan

Adrenergic α 1B = biological target: T6, Adrenergic α 1B (Rattus norvegicus, UniProt P15823); experiment: Radioligand binding panel (Table S1); conditions: 10 μM T1-11, n 2
T6 construct: purchased MDS Pharma Services Taiwan

Angiotensin AT1 = biological target: T7, Angiotensin AT1 (Homo sapiens, UniProt P30556); experiment: Radioligand binding panel (Table S1); conditions: 10 μM T1-11, n 2
T7 construct: purchased MDS Pharma Services Taiwan

Opiate, Non-Selective = experiment: Radioligand binding panel (Table S1); design: species or system rat; conditions: 10 μM T1-11, n 2
Dopamine D4.2 = biological target: T8, Dopamine D4.2 (Homo sapiens, UniProt P21917, DEL265-296); experiment: Radioligand binding panel (Table S1); conditions: 10 μM T1-11, n 2
T8 construct: purchased MDS Pharma Services Taiwan

Cannabinoid CB2 = biological target: T9, Cannabinoid CB2 (Homo sapiens, UniProt P34972); experiment: Radioligand binding panel (Table S1); conditions: 10 μM T1-11, n 2
T9 construct: purchased MDS Pharma Services Taiwan

Melanocortin MC5 = biological target: T10, Melanocortin MC5 (Homo sapiens, UniProt P33032); experiment: Radioligand binding panel (Table S1); conditions: 10 μM T1-11, n 2
T10 construct: purchased MDS Pharma Services Taiwan

Androgen (Testosterone) = experiment: Radioligand binding panel (Table S1); design: species or system human; conditions: 10 μM T1-11, n 2
PC12 cells = experiment: Annexin V-FITC staining, serum-deprived PC12 cells; format: cell-based, rat; conditions: T1-11 10 µM, 24 h
Procedure: An annexin V (FITC-conjugated) apoptosis kit (K101-400; BioVision, Mountain View, CA, USA) was used to analyze apoptotic cells. The experimental protocol followed the manufacturer's instructions and a previous article. In brief, after treatment with serum, serum-free medium, or serum-free medium plus T1-11 of the indicated concentration for 24 h, cells growing on 12-well plates at (3∼4)×10^5 cells/well were loaded with 0.5 ml binding buffer and 5 µl annexin V-FITC. After incubation for 5 min in the dark, cells were washed once with 1 ml of culture medium (without phenol red) for fluorescent imaging analyses (Axiovert-200M, Carl Zeiss, Gôttingen, Germany) or a flow cytometric analysis (Beckton Dickinson, Franklin Lakes, NJ, USA). Median values of the FITC fluorescent intensities were determined using an FL-1 channel (488/530Ex/Em nm). Five thousand live cells were analyzed per sample.

Prostanoid CRTH2 = biological target: T11, Prostanoid CRTH2 (Homo sapiens, UniProt Q9Y5Y4); experiment: Radioligand binding panel (Table S1); conditions: 10 μM T1-11, n 2
T11 construct: purchased MDS Pharma Services Taiwan

[5] = biological target: T12, Calcitonin Gene-Related, Peptide CGRP1 (Homo sapiens, UniProt O60894+Q16602); experiment: Radioligand binding panel (Table S1); conditions: 10 μM T1-11, n 2
T12 construct: purchased MDS Pharma Services Taiwan

R6/2 mice = experiment: Hemodynamic examination of R6/2 mice; format: in vivo; conditions: subcutaneous Alzet minipump for 48 h, 125 µg/mouse/day
Procedure: Heart rates and blood pressure of conscious and anesthetized mice were measured using a blood pressure monitor (model MK-2000; Muromachi Kikai, Tokyo, Japan) between 10 AM to 6 PM. Values of 12–18 successful readings per mouse were used to determine the blood pressure.
(A) T1-11 (125 µg/mouse/day) or vehicle (CON) was administrated subcutaneously to the indicated mice of 7 weeks old using ALZET osmotic minipumps for 6 weeks. Rotarod performance was assessed. (B, C) T1-11 (125 µg/mouse/day) was administrated subcutaneously to the indicated mice of 9 weeks old using ALZET osmotic minipumps for 48 h. Heart rate (B) and blood pressure (C) were determined by a tail-cuff method. * p<0.05. *** p<0.005. (TIF) Click here for additional data file.

[6] = biological target: T13, Serotonin (5-Hydroxytryptamine) 5-HT1A (Homo sapiens, UniProt P08908); experiment: Radioligand binding panel (Table S1); conditions: 10 μM T1-11, n 2
T13 construct: purchased MDS Pharma Services Taiwan

Transporter, Choline = biological target: T14, Transporter, Choline (Rattus norvegicus, UniProt Q9JMD7); experiment: Radioligand binding panel (Table S1); conditions: 10 μM T1-11, n 2
T14 construct: purchased MDS Pharma Services Taiwan

Adrenomedullin AM2 = biological target: T15, Adrenomedullin AM2 (Homo sapiens, UniProt O60896+Q16602); experiment: Radioligand binding panel (Table S1); conditions: 10 μM T1-11, n 2
T15 construct: purchased MDS Pharma Services Taiwan

Leptin = biological target: T16, Leptin (Mus musculus, UniProt P48356); experiment: Radioligand binding panel (Table S1); conditions: 10 μM T1-11, n 2
T16 construct: purchased MDS Pharma Services Taiwan

Bradykinin B2 = biological target: T17, Bradykinin B2 (Homo sapiens, UniProt P30411); experiment: Radioligand binding panel (Table S1); conditions: 10 μM T1-11, n 2
T17 construct: purchased MDS Pharma Services Taiwan

Leukotriene, BLT (LTB4) = biological target: T18, Leukotriene, BLT (LTB4) (Homo sapiens, UniProt Q15722); experiment: Radioligand binding panel (Table S1); conditions: 10 μM T1-11, n 2
T18 construct: purchased MDS Pharma Services Taiwan

[7] = biological target: T19, Serotonin (5-Hydroxytryptamine) 5-HT2B (Homo sapiens, UniProt P41595); experiment: Radioligand binding panel (Table S1); conditions: 10 μM T1-11, n 2
T19 construct: purchased MDS Pharma Services Taiwan

Gabapentin = experiment: Radioligand binding panel (Table S1); design: species or system rat; conditions: 10 μM T1-11, n 2

T4 sequence (P32247 whole entry): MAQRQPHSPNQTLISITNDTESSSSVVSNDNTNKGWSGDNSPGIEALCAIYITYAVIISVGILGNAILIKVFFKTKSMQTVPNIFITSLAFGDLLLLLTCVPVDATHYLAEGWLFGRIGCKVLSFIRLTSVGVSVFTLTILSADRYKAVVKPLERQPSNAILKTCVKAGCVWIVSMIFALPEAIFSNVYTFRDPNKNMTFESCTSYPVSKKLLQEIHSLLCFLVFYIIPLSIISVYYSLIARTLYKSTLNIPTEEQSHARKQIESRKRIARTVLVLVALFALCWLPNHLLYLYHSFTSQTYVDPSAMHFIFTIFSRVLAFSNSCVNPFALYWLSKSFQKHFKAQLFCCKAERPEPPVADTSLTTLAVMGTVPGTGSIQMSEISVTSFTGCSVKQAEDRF
T6 sequence (P15823 whole entry): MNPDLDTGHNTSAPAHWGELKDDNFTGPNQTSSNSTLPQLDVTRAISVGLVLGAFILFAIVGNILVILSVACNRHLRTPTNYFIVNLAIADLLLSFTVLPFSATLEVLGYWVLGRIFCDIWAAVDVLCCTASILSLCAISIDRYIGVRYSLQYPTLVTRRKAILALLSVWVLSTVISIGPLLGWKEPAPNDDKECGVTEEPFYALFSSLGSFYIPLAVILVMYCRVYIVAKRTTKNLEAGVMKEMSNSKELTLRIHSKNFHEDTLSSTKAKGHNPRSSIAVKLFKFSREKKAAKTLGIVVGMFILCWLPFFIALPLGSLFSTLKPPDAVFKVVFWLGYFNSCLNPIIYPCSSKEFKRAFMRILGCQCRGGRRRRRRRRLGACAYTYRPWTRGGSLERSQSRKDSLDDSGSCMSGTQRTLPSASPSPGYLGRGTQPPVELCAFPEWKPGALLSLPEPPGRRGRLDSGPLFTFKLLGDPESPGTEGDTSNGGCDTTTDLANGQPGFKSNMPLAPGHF
T8 sequence (P21917 with tags, fused parts or gaps DEL265-296): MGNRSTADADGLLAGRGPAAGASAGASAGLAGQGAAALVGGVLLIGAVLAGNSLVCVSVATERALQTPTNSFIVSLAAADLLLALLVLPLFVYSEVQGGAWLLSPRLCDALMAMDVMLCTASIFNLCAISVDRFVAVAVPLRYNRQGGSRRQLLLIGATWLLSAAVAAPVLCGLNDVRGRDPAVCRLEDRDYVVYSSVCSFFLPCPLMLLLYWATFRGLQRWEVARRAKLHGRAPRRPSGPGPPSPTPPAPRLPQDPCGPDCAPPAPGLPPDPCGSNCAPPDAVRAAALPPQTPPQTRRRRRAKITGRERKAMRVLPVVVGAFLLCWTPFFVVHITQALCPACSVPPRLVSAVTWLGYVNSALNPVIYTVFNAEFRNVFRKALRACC
T7 sequence (P30556 whole entry): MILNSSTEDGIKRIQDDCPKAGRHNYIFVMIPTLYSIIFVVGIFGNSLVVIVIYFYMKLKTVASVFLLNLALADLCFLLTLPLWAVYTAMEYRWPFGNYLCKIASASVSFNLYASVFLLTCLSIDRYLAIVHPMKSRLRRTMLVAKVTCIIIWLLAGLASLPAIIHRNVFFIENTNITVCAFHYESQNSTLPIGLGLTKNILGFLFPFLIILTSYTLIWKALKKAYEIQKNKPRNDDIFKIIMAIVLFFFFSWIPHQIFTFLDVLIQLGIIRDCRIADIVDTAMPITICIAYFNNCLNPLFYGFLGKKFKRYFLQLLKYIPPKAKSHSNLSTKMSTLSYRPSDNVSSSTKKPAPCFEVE
T1 sequence (P08912 whole entry): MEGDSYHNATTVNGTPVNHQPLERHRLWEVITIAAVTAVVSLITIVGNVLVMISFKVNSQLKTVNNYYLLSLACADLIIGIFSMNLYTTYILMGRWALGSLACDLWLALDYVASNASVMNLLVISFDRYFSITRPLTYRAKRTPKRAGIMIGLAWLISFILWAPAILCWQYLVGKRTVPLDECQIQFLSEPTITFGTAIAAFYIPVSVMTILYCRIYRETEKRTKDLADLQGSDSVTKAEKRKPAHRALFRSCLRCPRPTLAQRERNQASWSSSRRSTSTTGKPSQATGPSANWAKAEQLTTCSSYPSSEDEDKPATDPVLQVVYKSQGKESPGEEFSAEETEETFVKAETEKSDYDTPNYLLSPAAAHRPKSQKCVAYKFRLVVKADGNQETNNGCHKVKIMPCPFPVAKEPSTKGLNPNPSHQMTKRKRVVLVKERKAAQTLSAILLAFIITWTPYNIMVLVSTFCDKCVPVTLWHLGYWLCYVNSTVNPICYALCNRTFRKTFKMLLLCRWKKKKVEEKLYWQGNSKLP
T5 sequence (O70528 whole entry): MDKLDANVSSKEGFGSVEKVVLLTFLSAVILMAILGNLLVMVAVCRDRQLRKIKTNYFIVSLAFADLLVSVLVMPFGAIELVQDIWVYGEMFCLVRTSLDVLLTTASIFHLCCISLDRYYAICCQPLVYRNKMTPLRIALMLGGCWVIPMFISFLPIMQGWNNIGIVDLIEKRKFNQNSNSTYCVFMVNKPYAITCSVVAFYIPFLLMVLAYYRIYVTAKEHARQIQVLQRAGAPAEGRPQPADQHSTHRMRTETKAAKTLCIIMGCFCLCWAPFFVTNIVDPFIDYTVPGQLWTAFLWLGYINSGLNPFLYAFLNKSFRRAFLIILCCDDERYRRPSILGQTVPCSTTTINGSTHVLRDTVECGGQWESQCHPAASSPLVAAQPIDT
T2 sequence (P35367 whole entry): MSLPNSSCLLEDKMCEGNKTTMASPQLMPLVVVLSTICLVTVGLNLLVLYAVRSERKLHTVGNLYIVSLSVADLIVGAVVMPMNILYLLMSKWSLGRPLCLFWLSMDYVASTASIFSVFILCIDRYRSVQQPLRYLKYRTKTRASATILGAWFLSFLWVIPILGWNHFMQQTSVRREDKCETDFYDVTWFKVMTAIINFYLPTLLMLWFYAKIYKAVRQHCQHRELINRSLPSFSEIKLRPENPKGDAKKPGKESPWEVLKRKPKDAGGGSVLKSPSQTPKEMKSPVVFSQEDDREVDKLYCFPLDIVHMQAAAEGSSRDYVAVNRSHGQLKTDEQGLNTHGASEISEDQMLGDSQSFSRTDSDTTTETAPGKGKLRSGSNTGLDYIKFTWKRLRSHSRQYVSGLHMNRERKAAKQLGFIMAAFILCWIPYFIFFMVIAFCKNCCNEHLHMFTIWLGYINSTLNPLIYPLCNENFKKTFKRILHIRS
T3 sequence (P35354 18-604): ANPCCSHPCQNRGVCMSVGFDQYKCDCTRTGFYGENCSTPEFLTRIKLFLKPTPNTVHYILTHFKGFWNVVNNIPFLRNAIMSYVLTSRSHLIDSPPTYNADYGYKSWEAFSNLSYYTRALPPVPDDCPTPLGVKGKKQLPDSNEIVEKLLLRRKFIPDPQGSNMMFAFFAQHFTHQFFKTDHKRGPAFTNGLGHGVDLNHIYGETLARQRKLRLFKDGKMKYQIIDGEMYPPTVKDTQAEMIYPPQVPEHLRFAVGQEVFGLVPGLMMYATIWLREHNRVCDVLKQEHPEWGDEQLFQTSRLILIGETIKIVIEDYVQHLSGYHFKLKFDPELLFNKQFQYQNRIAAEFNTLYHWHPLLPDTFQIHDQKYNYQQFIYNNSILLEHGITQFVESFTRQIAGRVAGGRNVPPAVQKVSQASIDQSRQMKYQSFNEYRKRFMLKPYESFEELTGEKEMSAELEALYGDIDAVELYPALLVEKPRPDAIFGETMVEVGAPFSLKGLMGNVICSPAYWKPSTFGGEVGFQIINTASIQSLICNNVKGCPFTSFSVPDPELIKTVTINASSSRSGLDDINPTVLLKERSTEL
T13 sequence (P08908 whole entry): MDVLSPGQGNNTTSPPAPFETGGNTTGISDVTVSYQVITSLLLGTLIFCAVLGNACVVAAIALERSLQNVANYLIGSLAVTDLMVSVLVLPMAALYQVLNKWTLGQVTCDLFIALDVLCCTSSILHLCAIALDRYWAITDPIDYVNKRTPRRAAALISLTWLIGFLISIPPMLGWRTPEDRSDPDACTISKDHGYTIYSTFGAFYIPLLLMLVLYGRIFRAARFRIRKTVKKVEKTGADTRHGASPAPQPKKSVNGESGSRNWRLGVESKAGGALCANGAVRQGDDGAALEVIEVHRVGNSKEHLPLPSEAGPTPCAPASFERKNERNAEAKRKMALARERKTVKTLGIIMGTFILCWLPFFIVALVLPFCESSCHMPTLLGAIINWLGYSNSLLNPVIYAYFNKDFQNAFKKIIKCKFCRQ
T12 sequence (Q16602 23-461): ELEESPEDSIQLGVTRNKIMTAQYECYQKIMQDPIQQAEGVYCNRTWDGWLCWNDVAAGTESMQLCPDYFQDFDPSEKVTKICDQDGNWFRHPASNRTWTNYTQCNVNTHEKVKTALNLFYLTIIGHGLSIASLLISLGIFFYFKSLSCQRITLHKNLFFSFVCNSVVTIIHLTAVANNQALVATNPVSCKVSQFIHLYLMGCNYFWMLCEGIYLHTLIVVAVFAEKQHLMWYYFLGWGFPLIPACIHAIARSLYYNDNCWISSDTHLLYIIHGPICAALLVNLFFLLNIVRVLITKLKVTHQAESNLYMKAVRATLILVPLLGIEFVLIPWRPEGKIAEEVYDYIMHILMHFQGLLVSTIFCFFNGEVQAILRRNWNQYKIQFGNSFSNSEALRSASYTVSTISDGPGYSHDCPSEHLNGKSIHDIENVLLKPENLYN
T12 sequence (O60894 27-148): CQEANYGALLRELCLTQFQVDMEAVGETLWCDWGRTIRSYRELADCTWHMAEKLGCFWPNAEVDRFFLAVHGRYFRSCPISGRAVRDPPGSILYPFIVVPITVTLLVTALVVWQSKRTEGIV
T15 sequence (Q16602 23-461): as the sequence (Q16602 23-461) above
T15 sequence (O60896 24-148 partner): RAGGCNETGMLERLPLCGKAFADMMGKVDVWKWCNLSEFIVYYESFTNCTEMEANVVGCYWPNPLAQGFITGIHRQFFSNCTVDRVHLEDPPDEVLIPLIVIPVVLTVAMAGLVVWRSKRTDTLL

OC[C@H]1O[C@@H](n2cnc3c(NCc4ccc(O)cc4)ncnc32)[C@H](O)[C@@H]1O [T1-11, N ^6-(4-hydroxybenzyl)adenine riboside]
% Inhibition [1]: -7%
% Inhibition (GABAA, Agonist Site): 4%
% Inhibition (Sigma, Non-Selective): -3%
inhibition at 10 µM (Muscarinic M5): 0%
inhibition at 10 µM (Histamine H1): 1%
Chymotrypsin-like activity in striatal synaptosome fractions [2]: significantly enhanced chymotrypsin-like activity in the HD striatum
inhibition at 10 µM (Cyclooxygenase COX-2): 0%
% Inhibition [3]: -4%
inhibition at 10 µM (Bombesin BB3): 12%
inhibition at 10 µM [4]: 1%
inhibition at 10 µM (Adrenergic α 1B): 3%
inhibition at 10 µM (Angiotensin AT1): -5%
% Inhibition (Opiate, Non-Selective): -13%
inhibition at 10 µM (Dopamine D4.2): 3%
inhibition at 10 µM (Cannabinoid CB2): -2%
inhibition at 10 µM (Melanocortin MC5): 1%
% Inhibition (Androgen (Testosterone)): 3%
Apoptosis (annexin V-FITC) (PC12 cells): rescued serum-deprived PC12 cells from apoptosis
inhibition at 10 µM (Prostanoid CRTH2): 0%
inhibition at 10 µM [5]: 6%
Blood pressure (R6/2 mice): did not change the blood pressure of R6/2 mice
Heart rate (R6/2 mice): did not affect their heart rate and blood pressure
inhibition at 10 µM [6]: 9%
inhibition at 10 µM (Transporter, Choline): -10%
inhibition at 10 µM (Adrenomedullin AM2): 9%
inhibition at 10 µM (Leptin): 6%
inhibition at 10 µM (Bradykinin B2): -9%
inhibition at 10 µM (Leukotriene, BLT (LTB4)): -6%
inhibition at 10 µM [7]: 5%
% Inhibition (Gabapentin): 8%
